Test results as given in patent publication US20230000063A1, “SYSTEM FOR DETECTING EXTRACELLULAR PURINERGIC RECEPTOR LIGAND, AND NON-HUMAN ANIMAL HAVING THE SYSTEM INTRODUCED THEREINTO” (Chugai Seiyaku Kabushiki Kaisha, priority 2019, published 2023).

Experiments:
human P2Y11 [1] = test: Detection of in vivo ATP signal in P2Y11-split Luc (C-terminal)/Arrestin-split Luc (N-terminal) double knock-in mouse; conditions: 50 μL of 1 mM ATP + 15 mg/mL VivoGlo Luciferin subcutaneously, IVIS 10 to 20 minutes after, not detected in single-allele or wild type mice
Method: To a P2Y11-split Luc (C-terminal)/Arrestin-split Luc (N-terminal) double knock-in mouse, 50 μL of a mixture of ATP at a final concentration of 1 mM and 15 mg/mL VivoGlo Luciferin (Promega #P1043) was subcutaneously administered. A luminescent signal intensity was measured with IVIS Spectrum CT (Perkin Elmer) 10 to 20 minutes after the ATP administration. The measurement was performed under conditions of exposure time of 180 sec, with medium binning, and F/stop of 1, and thus the luminescent signal was analyzed in terms of a physical quantity (photons/sec).

human P2Y11 [2] = molecular target: T1, human P2Y11 (Homo sapiens, UniProt Q96G91); test: Detection of in vitro ATP concentration in fibroblasts derived from the double knock-in mouse; assay type: cell-based; conditions: fibroblast from double knock-in mouse; 0 to 1000 μM ATP + VivoGlo Luciferin; IVIS, exposure 180 sec
T1 construct: expressed in transfected cells; host or cells: cells of the P2Y11-split Luc (C-terminal)/Arrestin-split Luc (N-terminal) double knock-in mouse (Rosa26 locus): in vivo, and a skin fibroblast line derived from it
T1 sequence (Q96G91 1-374): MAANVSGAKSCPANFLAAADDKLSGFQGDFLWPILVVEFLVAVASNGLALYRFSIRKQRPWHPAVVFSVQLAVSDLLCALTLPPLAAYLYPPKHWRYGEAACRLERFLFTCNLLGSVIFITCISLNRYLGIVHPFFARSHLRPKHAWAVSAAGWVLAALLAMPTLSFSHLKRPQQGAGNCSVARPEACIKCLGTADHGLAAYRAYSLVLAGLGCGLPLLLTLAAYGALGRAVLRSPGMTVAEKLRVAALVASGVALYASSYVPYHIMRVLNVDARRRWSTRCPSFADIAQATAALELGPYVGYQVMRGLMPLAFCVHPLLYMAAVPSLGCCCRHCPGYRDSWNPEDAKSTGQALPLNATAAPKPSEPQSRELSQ
Method: A skin tissue was collected from a P2Y11-split Luc (C-terminal)/Arrestin-split Luc (N-terminal) double knock-in mouse, and was sliced with a scalpel in a culture fluid, and the resultant was covered with a cover glass with a dermis side in contact with a bottom of a culture dish, and was cultured in a D-MEM medium supplemented with 10% FBS and 1×NEAA. Fibroblasts confirmed to have migration/growth of cells were collected by a trypsin treatment, and the resultant was repeatedly passaged to establish a fibroblast cell line.
The fibroblast derived from the P2Y-11 split Luc (C-terminal)/Arrestin-split Luc (N-terminal) double knock-in mouse was seeded in a 24-well culture plate. On the next day, ATP at a final concentration of 0 to 1000 μM and VivoGlo Luciferin (Promega #P1043) were added thereto, and a luminescent signal was detected with IVIS Spectrum CT (Perkin Elmer). The measurement was performed under conditions of exposure time of 180 sec, with medium binning, and F/Stop of 1, and thus the luminescent signal was analyzed in terms of a physical quantity (photons/sec).

human P2Y11 [3] = molecular target: T1, human P2Y11; test: In vivo imaging of ATP at known concentration in the double knock-in mouse; conditions: 50 μL of 0, 1, 2, 4 or 8 mM ATP + 15 mg/mL VivoGlo Luciferin subcutaneously, IVIS 10 to 20 minutes after, exposure 60 sec
Method: To a P2Y11-split Luc (C-terminal)/Arrestin-split Luc (N-terminal) double knock-in mouse, 50 μL of a mixture of ATP at a final concentration of 0 mM, 1 mM, 2 mM, 4 mM, or 8 mM and 15 mg/mL VivoGlo Luciferin (Promega #P1043) was subcutaneously administered. A luminescent signal intensity was measured with IVIS Spectrum CT (Perkin Elmer) 10 to 20 minutes after the ATP administration. The measurement was performed under conditions of exposure time of 60 sec, with medium binning, and F/stop of 1, and thus the luminescent signal was analyzed in terms of a physical quantity (photons/sec). […] Thus it was confirmed that the mouse functions as a concentration dependent reporter mouse (FIG. 6 and FIG. 7).

## Nc1ncnc2c1ncn2[C@@H]1O[C@H](COP(=O)(O)OP(=O)(O)OP(=O)(O)O)[C@@H](O)[C@H]1O [ATP]
Human P2Y11 [1]
  luminescent signal due to the ATP administration: a luminescent signal due to the ATP administration was detected
Human P2Y11 [2]
  luminescent signal intensity: a concentration-dependent signal intensity was detected
Human P2Y11 [3]
  luminescent signal intensity: an ATP concentration-dependent signal intensity was detected
